In patent US4000151A, “Triazolyl benzophenone compounds” (priority 1975, dated 1976) one finds ED50 data, which are given here for two molecules.

Structures are written as SMILES.

Usually ED50 stands for the dose that gives a 50% effect, or the effect in half of the subjects.

Assay type in all cases: in vivo
Test [1] relates to mice. The experiment in a line: Chimney test (mice back up and out of a vertical glass cylinder within 30 seconds). Conditions: Mus musculus. On the procedure: (§1) Sedative effects of 8-chloro-1-methyl-6-phenyl-4H-s-triazolo[ 4,3-a][ 1,4]benzodiazepine (a final product conforming to formula VII) are shown by the following tests in mice: […]
Chimney test: [Med. Exp. 4, 145 (1961)]: The effective intraperitoneal dosage for 50% of the mice (ED50) is 0.09 mg./kg.; the oral ED50 is 0.6 mg./kg. The test determines the ability of mice to back up and out of a vertical glass cylinder within 30 seconds. At the effective dosage, 50% of the mice failed doing it.

The subject of test [2] is mice. The experiment in a line: Pedestal test (mice staying on the pedestal for more than 1 minute). Conditions: Mus musculus; Table II, route not given. On the procedure: as §1
Pedestal test; The untreated mouse leaves the pedestal in less than a minute to climb back to the floor of the standard mouse box. Tranquilized mice will stay on the pedestal for more than 1 minute. The ED50 (oral administration) is 0.9 mg./kg.

Test [3] relates to mice. The experiment in a line: Dish test (mice remaining in Petri dish for more than 3 minutes). Conditions: Mus musculus; Table II, route not given. As to the method: as §1
Dish test: Mice in Petri dishes (10 cm. diameter, 5 cm. high, partially embedded in wood shavings), climb out in a very short time, when not treated. Mice remaining in the dish for more than 3 minutes indicates tranquilization. ED50 equals the dose of the test compound at which 50% of the mice remain in the dish.

In test [4] the test system is mice. Briefly: Nicotine antagonism test. Conditions: Mus musculus; Table II, route not given. As to the method: Nicotine antagonism test: Mice in a group of 6 are injected with the test compound (8-chloro-1-methyl-6-phenyl-4H-s-triazolo[ 4,3-a][ 1,4]benzodiazepine). Thirty minutes later the mice, including control (untreated) mice are injected with nicotine salicylate (2 mg./kg.). The control mice show overstimulation, i.e., (1) running convulsions followed by (2) tonic extensor fits, followed by (3) death.

As for `Cc1nnc2n1-c1ccc(Cl)cc1C(c1ccccc1)=NC2` [8-Chloro-1-methyl-6-phenyl-4H-s-triazolo[4,3-a][1,4]benzodiazepine], in test [1] (mice, oral, read-out: oral ED50, chimney test), the 50% effective dose (ED50) came to 0.6 mg/kg.
`Cc1nncn1-c1ccc(Cl)cc1C(=O)c1ccccc1` [5-Chloro-2-(3-methyl-4H-1,2,4-triazol-4-yl)benzophenone]: the ED50 was 28 mg/kg in test [1] (Table II, route not given, read-out: ED50 Ch); 20 mg/kg in test [2]; 23 mg/kg in test [3]; 20 mg/kg in test [4].
